Biological target: T1, acetylcholine muscarinic M1 receptor (CHOnfat/hM1 cells) (Homo sapiens, UniProt P11229)
T1 construct: expressed in transfected cells; host or cells: CHOnfat (CHO cells; selected with Geneticin)
T1 sequence (P11229 1-460): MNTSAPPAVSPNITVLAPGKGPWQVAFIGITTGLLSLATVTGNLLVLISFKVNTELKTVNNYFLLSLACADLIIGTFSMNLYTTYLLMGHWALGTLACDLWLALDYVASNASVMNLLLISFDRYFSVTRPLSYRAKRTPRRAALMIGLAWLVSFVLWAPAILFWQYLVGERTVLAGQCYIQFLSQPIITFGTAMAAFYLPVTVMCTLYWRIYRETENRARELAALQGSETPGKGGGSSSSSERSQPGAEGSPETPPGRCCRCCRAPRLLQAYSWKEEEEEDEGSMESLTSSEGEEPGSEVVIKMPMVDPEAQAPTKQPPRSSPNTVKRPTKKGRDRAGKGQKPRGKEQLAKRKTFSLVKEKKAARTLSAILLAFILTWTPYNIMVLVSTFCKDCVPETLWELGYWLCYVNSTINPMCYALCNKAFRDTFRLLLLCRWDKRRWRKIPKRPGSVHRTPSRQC
Assay: FLIPR intracellular calcium assay for M1 positive allosteric modulator activity (acetylcholine EC20)
Format: cell-based
Conditions: not given
Method: The assay studies the effect of one or several concentrations of test compounds on basal or acetylcholine-stimulated Ca^2+ levels using FLIPR.
Compounds are prepared and subjected to a preincubation period of 4 min. Thereafter, a single EC20 concentration of acetylcholine is added to each well (3 nM final). The intracellular Ca^2+ level of each sample is measured and compared to an acetylcholine control to determine any modulatory activity.
Cells: CHOnfat/hM1, hM2, hM3 or hM4 cells are plated 24 hr before the assay at a density of 18,000 cells/well (100 μL) in a 384 well plate. CHOnfat/hM1 and CHOnfat/hM3 Growth Medium: 90% DMEM (Hi Glucose); 10% HI FBS; 2 mM L-glutamine; 0.1 mM NEAA; Pen-Strep; and 1 mg/ml Geneticin, are added. For M2Gqi5CHOnfat and M4Gqi5CHOnfat cells, an additional 600 μg/ml hygromycin is added.
Equipment: 384 well plate, 120 μL addition plate; 96-well Whatman 2 ml Uniplate Incubator, 37° C., 5% CO2; Skatron EMBLA-384 Plate Washer; Multimek Pipetting System; Genesis Freedom 200 System; Mosquito System; Temo Nanoliter Pipetting System; and FLIPR^384 Fluorometric Imaging Plate Reader System are used.
Buffers. Assay Buffer: Hanks Balanced Salt Solution, with 20 mM Hepes, 2.5 mM Probenecid (Sigma P-8761) first dissolved in 1 N NaOH, 1% Bovine Serum Albumin (Sigma A-9647). Dye Loading Buffer: Assay Buffer plus 1% Fetal Bovine Serum and Fluo-4AM/Pluronic Acid Mixture. 2 mM Fluo-4AM ester stock in DMSO (Molecular Probes F-14202) Concentration of 2 μM in buffer for a final concentration of 1 μM in Assay. 20% Pluronic Acid Solution stock, with concentration of 0.04% in Buffer, 0.02% in Assay.
65 μL of 2 mM Fluo-4AM are mixed with 130 μL of 20% Pluronic Acid. The resulting solution and 650 μL FBS is added to the assay buffer for a total volume of 65 mL. Positive Controls: 4-Br-A23187: 10 mM in DMSO; final concentration 10 μM. Acetylcholine: 10 mM in water, working stock at both 20 μM and 30 μM in assay buffer, final concentration of 10 μM. This is used to check the maximum stimulation of the CHOK1/hM1 cells. 20 μM (2×) acetylcholine is added in the preincubation part of the assay, and the 30 μM (3×) stock is added in the second part. (EC20) Acetylcholine: 10 mM in water, working stock of 9 nM (3×), and final concentration in assay is 3 nM. This is used after the preincubation with test compounds. Addition of the EC20 Acetylcholine to each well with a test compound will ascertain any modulator activity. 24 wells contain 3 nM Acetylcholine alone as a control.
Screening Plate: Compounds are titrated in 96-well plates (columns 2-11), 100% DMSO, started at a concentration of 15 mM (150× stock concentration), and 3-fold serial dilutions using Genesis Freedom200 System. Four 96-well plates are combined into a 384-well plate using Mosquito Nanoliter Pipetting System by transferring 1 μl of serial diluted compounds to each well, and 1 mM acetylcholine (100× stock concentration) were added as a control. Using Temo, 49 μl assay buffer is added to each well of the 384-well plate right before assay.
In a 96-well Whatman 2 ml Uniplate, 9 nM Acetylcholine (3×) is pipetted into wells corresponding to the screening compounds, and into control wells. The 30 μM acetylcholine control (3×) is added into control wells, and the 3× agonist plate is transferred into a 384 well plate.
Cells are washed three times with 100 μL of buffer, leaving 30 μL of buffer in each well. Using Multimek, 30 μL of Dye Loading Buffer is added into each well and incubated at 37° C., 5% CO2 for up to one hr.
After 60 min, the cells are washed three times with 100 μL of buffer, leaving 30 μL of buffer in each well. The cell plate, screening plate, and agonist addition plates are placed on the platform in the FLIPR and the door closed. A signal test to check background fluorescence and basal fluorescence signal is performed. Laser intensity is adjusted if necessary. […]

| Compound | EC50 |
| --- | --- |
| N#CC1(c2ccccc2)CCN(Cc2cc(C(=O)N[C@H]3COCC[C@@H]3O)c(=O)n3ccccc23)CC1 [Example 11, 1-[(4-Cyano-4-phenylpiperidin-1-yl)methyl]-N-[(3S,4S)-4-hydroxytetrahydro-2H-pyran-3-yl]-4-oxo-4H-quinolizine-3-carboxamide] | 560 nM |
| N#CC1(c2ccccc2Br)CCN(Cc2cc(C(=O)N[C@H]3CCCC[C@@H]3O)c(=O)n3ccccc23)CC1 [Example 12] | 24 nM |
| N#CC1(c2ccccc2)CCN(Cc2cc(C(=O)N[C@@H]3CCOC[C@H]3O)c(=O)n3ccccc23)CC1 [Example 9, 1-[(4-Cyano-4-phenylpiperidin-1-yl)methyl]-N-[(3S,4R)-3-hydroxytetrahydro-2H-pyran-4-yl]-4-oxo-4H-quinolizine-3-carboxamide] | 530 nM |
| N#CC1(c2ccccn2)CCN(Cc2cc(C(=O)N[C@H]3CCOC[C@@H]3O)c(=O)n3ccccc23)CC1 (racemic) [Example 7, rac-1-[(4-Cyano-4-pyridin-2-ylpiperidin-1yl)methyl]-N-[(3R,4S)-3-hydroxytetrahydro-2H-pyran-4-yl]-4-oxo-4H-quinolizine-3-carboxamide] | 25 nM |
| N#CC1(c2cc(C(F)F)ccn2)CCN(Cc2cc(C(=O)N[C@H]3CCCC[C@@H]3O)c(=O)n3ccccc23)CC1 [Example 24, 1-({4-Cyano-4-[4-(difluoromethyl)pyridin-2-yl]piperidin-1-yl}methyl)-N-[(1S,2S)-2-hydroxycyclohexyl]-4-oxo-4H-quinolizine-3-carboxamide] | 25 nM |
| C[C@]1(O)CCCC[C@@H]1NC(=O)c1cc(CN2CCC(C#N)(c3ccccn3)CC2)c2ccccn2c1=O (racemic) [Example 14, rac-1-[(4-Cyano-4-pyridin-2-ylpiperidin-1-yl)methyl]-N-[(1R,2R)-2-hydroxy-2-methylcyclohexyl]-4-oxo-4H-quinolizine-3-carboxamide] | 93 nM |

Same assay, conditions: CHOnfat/hM1 cells, 4 min preincubation, then EC20 acetylcholine (3 nM final), FLIPR Ca2+; read-out: IP Value (inflection point)

| Compound | EC50 |
| --- | --- |
| O=C(N[C@H]1CCCC[C@@H]1O)c1cc(Cc2ccc(-n3cccn3)cn2)c2ccccn2c1=O [Example 4, N-[(1S,2S)-2-Hydroxycyclohexyl]-4-oxo-1-{[5-(1H-pyrazol-1-yl)pyridine-2-yl]methyl}-4H-quinolizine-3-carboxamide] | 444 nM |
| CS(=O)(=O)[C@H]1CCCC[C@@H]1NC(=O)c1cc(CN2CCC(C#N)(c3ccccn3)CC2)c2ccccn2c1=O (racemic) [Example 18, rac-1-[(4-Cyano-4-pyridin-2-ylpiperidin-1-yl)methyl]-N-[(1R,2R)-2-(methylsulfonyl)cyclohexyl]-4-oxo-4H-quinolizine-3-carboxamide] | 800 nM |
| O=C(N[C@H]1CCCC[C@@H]1O)c1cc(Cc2ccc(Br)cn2)c2ccccn2c1=O [Example 2, 1-[(5-Bromopyridin-2-yl)methyl]-N-[(1S,2S)-2-hydroxycyclohexyl]-4-oxo-4H-quinolizine-3-carboxamide] | 105 nM |
| C[C@H]1COCC[C@@H]1NC(=O)c1cc(CN2CCC(C#N)(c3ccccn3)CC2)c2ccccn2c1=O (racemic) [Example 21, rac-1-[(4-Cyano-4-pyridin-2-ylpiperidin-1-yl)methyl]-N-[(3R,4S)-3-methyltetrahydro-2H-pyran-4-yl]-4-oxo-4H-quinolizine-3-carboxamide] | 380 nM |
| N#CC1(c2ccccn2)CCN(Cc2cc(C(=O)N[C@H]3CCCC[C@@H]3Br)c(=O)n3ccccc23)CC1 (racemic) [Example 13, rac-N-[(1R,2R)-2-Bromocyclohexyl)-1-[(4-cyano-4-pyridin-2-ylpiperidin-1-yl)methyl]-4-oxo-4H-quinolizine-3-carboxamide] | 480 nM |
| N#CC1(c2ccccn2)CCN(Cc2cc(C(=O)N[C@@H]3CCCCC3=O)c(=O)n3ccccc23)CC1 [Example 15, 1-[(4-Cyano-4-pyridin-2-ylpiperidin-1-yl)methyl]-4-oxo-N-[(1R)-2-oxocyclohexyl]-4H-quinolizine-3-carboxamide] | 660 nM |
| CS[C@H]1CCCC[C@@H]1NC(=O)c1cc(CN2CCC(C#N)(c3ccccn3)CC2)c2ccccn2c1=O (racemic) [Example 16, rac-1-[(4-Cyano-4-pyridin-2-ylpiperidin-1-yl)methyl]-N-[(1R,2R)-2-(methylthio)cyclohexyl]-4-oxo-4H-quinolizine-3-carboxamide] | 180 nM |
| N#Cc1ccnc(C2(C#N)CCN(Cc3cc(C(=O)N[C@H]4CCCC[C@@H]4O)c(=O)n4ccccc34)CC2)c1 [Example 22, 1-{[4-Cyano-4-(4-cyanopyridin-2-yl)piperidin-1-yl]methyl}-N-[(1S,2S)-2-hydroxycyclohexyl]-4-oxo-4H-quinolizine-3-carboxamide] | 280 nM |
| Cc1cccn2c(=O)c(C(=O)NC3CCOCC3)cc(CN3CCC(C#N)(c4ccccn4)CC3)c12 [Example 25, 1-[(4-Cyano-4-pyridin-2-ylpiperidin-1-yl)methyl]-9-methyl-4-oxo-N-(tetrahydro-2H-pyran-4-yl)-4H-quinolizine-3-carboxamide] | 2100 nM |
| N#CC1(c2ccccn2)CCN(Cc2cc(C(=O)NC3CCOCC3)c(=O)n3ccccc23)CC1 [Example 1, 1-[(4-Cyano-4-pyridin-2-ylpiperidin-1-yl)methyl]-4-oxo-4H—N-(tetrahydro-2H-pyran-4-yl)-4H-quinolizine-3-carboxamide] | 340 nM |
| N#CC1(c2ccccn2)CCN(Cc2cc(C(=O)N[C@H]3COCC[C@@H]3O)c(=O)n3ccccc23)CC1 (racemic) [Example 8, rac-1-[(4-Cyano-4-pyridin-2-ylpiperidin-1yl)methyl]-N-[(3R,4R)-4-hydroxytetrahydro-2H-pyran-3-yl]-4-oxo-4H-quinolizine-3-carboxamide] | 220 nM |
| Cn1cc(N2CCN(Cc3cc(C(=O)N[C@H]4CCCC[C@@H]4O)c(=O)n4ccccc34)CC2=O)cn1 [Example 6, N-[(1S,2S)-2-Hydroxycyclohexyl]-1-{[4-(1-methyl-1H-pyrazol-4-yl)-3-oxopiperazin-1-yl]methyl}-4-oxo-4H-quinolizine-3-carboxylate] | 170 nM |
| N#CC1(c2ccccn2)CCN(Cc2cc(C(=O)NC3CCCNC3)c(=O)n3ccccc23)CC1 (centres unmarked) [Example 19, 1-[(4-Cyano-4-pyridin-2-ylpiperidin-1-yl)methyl]-4-oxo-N-piperidin-3-yl-4H-quinolizine-3-carboxamide] | 1800 nM |
| O=C(N[C@H]1CCCC[C@@H]1O)c1cc(CN2CCN(c3ccc(C(F)F)nc3)CC2)c2ccccn2c1=O [Example 5, 1-({4-[6-(Difluoromethyl)pyridine-3-yl]piperazin-1-yl}methyl)-N-[(1S,2S)-2-hydroxycyclohexyl]-4-oxo-4H-quinolizine-3-carboxamide] | 210 nM |

— patent US8754220B2, “Quinolizidinone carboxamide M1 receptor positive allosteric modulators” (Merck Sharp & Dohme Corp., priority 2009, dated 2014)
